# Where a name gives a salt, the structure may show the parent alone.
# Target: T1, proton pump (H+/K+-ATPase) (Sus scrofa, UniProt P19156)
# T1 construct: Gastric vesicles were prepared from hog stomach via centrifugal separation; from tissue; host or cells: hog stomach (gastric vesicles, method of Rabon et al. 1988)
# Assay: Measurement of inhibitory effects on proton pump (H+/K+-ATPase) activities
# Assay type: biochemical
# Details: hog gastric vesicles, K+-specific H+/K+-ATPase activity, Tris-HCl buffer pH 7.4, 37° C. for 40 minutes, malachite green Pi readout
# Procedure, shortened: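 Hog gastric vesicles in 60 mmol/l Tris-HCl pH 7.4 with 0.5% DMSO were treated with compounds at room temperature; reaction was started with 10 μl of 10 mmol/l ATP stock. Released Pi was read at 570 nm, K+-specific activity taken as the ±K+ difference. IC50 from 4-parameter logistic fit.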
# T1 sequence (P19156 whole entry): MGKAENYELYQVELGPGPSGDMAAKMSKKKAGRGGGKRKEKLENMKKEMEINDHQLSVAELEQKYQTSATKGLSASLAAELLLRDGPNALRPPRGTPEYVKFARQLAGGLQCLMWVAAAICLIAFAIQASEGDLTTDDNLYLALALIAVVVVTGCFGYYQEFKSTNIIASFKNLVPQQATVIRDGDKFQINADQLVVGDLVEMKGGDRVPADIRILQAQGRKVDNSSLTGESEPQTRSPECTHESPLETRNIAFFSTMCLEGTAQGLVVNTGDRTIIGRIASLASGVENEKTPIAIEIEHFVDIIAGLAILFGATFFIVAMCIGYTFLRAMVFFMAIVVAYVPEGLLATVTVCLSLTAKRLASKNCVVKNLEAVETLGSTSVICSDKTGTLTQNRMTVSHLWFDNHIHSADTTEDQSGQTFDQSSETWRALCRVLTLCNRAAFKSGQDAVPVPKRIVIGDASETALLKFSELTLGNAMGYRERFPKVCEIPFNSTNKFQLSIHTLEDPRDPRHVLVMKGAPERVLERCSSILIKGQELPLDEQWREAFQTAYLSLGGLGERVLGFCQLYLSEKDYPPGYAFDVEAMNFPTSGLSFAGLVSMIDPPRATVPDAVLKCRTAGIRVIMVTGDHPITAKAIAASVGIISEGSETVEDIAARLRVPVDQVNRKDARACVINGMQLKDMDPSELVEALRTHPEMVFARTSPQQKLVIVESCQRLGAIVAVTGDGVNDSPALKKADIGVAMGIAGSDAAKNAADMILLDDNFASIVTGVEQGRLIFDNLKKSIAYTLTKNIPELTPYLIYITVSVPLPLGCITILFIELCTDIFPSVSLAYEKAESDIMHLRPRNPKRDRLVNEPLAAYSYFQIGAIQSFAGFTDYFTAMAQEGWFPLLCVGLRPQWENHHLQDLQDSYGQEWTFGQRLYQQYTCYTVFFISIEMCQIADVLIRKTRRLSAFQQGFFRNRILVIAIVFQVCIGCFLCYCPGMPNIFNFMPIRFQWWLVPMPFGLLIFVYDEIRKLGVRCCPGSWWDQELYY
# T1 sequence (P18434 whole entry partner): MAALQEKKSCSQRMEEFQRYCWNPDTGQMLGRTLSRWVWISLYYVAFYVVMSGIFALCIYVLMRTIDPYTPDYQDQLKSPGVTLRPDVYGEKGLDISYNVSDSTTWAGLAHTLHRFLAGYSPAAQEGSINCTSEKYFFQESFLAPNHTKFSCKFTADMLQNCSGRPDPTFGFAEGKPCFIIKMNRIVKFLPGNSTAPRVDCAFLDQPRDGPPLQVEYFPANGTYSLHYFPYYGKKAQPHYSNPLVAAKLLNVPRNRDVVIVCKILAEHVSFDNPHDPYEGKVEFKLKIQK
row,SMILES,IC50 [µM]
1,"CNCc1cn(S(=O)(=O)c2cccc(OC(F)F)c2)c2cc(Cc3ccc(OC)nc3Cl)ccc12 [Example 296, 1-(6-((2-chloro-6-methoxypyridin-3-yl)methyl)-1-((3-(difluoromethoxy)phenyl)sulfonyl)-1H-indol-3-yl)-N-methylmethanamine]",0.93
2,"CNCc1cn(S(=O)(=O)c2cccc(OC(F)(F)F)c2)c2cc(Cc3ccc(OC)nc3Cl)ccc12 [Example 297, 1-(6-((2-chloro-6-methoxypyridin-3-yl)methyl)-1-((3-(trifluoromethoxy)phenyl)sulfonyl)-1H-indol-3-yl)-N-methylmethanamine]",1.19
3,"CNCc1cn(S(=O)(=O)c2ccc(OC(F)F)cc2)c2cc(Cc3ccc(OC)nc3Cl)ccc12 [Example 298, 1-(6-((2-chloro-6-methoxypyridin-3-yl)methyl)-1-((4-(difluoromethoxy)phenyl)sulfonyl)-1H-indol-3-yl)-N-methylmethanamine]",3.6
4,"CNCc1cn(S(=O)(=O)c2cccc(F)c2)c2cc(Cc3ccc(C)cc3Cl)ccc12 [Example 299, 1-(6-(2-chloro-4-methylbenzyl)-1-((3-fluorophenyl)sulfonyl)-1H-indol-3-yl)-N-methylmethanamine]",0.27
5,"CNCc1cn(S(=O)(=O)c2ccccc2F)c2cc(Cc3ccc(C)cc3Cl)ccc12 [Example 300, 1-(6-(2-chloro-4-methylbenzyl)-1-((2-fluorophenyl)sulfonyl)-1H-indol-3-yl)-N-methylmethanamine]",1.53
6,"CNCc1cn(S(=O)(=O)c2cccc(Cl)c2)c2cc(Cc3ccc(C)cc3Cl)ccc12 [Example 301, 1-(6-(2-chloro-4-methylbenzyl)-1-((3-chlorophenyl)sulfonyl)-1H-indol-3-yl)-N-methylmethanamine]",0.79
7,"CNCc1cn(S(=O)(=O)c2cccc(C(F)(F)F)c2)c2cc(Cc3ccc(C)cc3Cl)ccc12 [Example 302, 1-(6-(2-chloro-4-methylbenzyl)-1-((3-(trifluoromethyl)phenyl)sulfonyl)-1H-indol-3-yl)-N-methylmethanamine]",0.32
8,"CNCc1cn(S(=O)(=O)c2cccc(OC)c2)c2cc(Cc3ccc(C)cc3Cl)ccc12 [Example 303, 1-(6-(2-chloro-4-methylbenzyl)-1-((3-methoxyphenyl)sulfonyl)-1H-indol-3-yl)-N-methylmethanamine]",0.47
9,"CNCc1cn(S(=O)(=O)c2cccc(OC(F)F)c2)c2cc(Cc3ccc(C)cc3Cl)ccc12 [Example 304, 1-(6-(2-chloro-4-methylbenzyl)-1-((3-(difluoromethoxy)phenyl)sulfonyl)-1H-indol-3-yl)-N-methylmethanamine]",0.6
10,"CNCc1cn(S(=O)(=O)c2cccc(OC(F)(F)F)c2)c2cc(Cc3ccc(C)cc3Cl)ccc12 [Example 305, 1-(6-(2-chloro-4-methylbenzyl)-1-((3-(trifluoromethoxy)phenyl)sulfonyl)-1H-indol-3-yl)-N-methylmethanamine]",0.61
11,CNCc1cn(S(=O)(=O)c2ccc(F)cc2)c2cc(Cc3ccc(C)cc3Cl)ccc12 [Example 306],0.68
12,"CNCc1cn(S(=O)(=O)c2ccc(OC)cc2)c2cc(Cc3ccc(C)cc3Cl)ccc12 [Example 307, 1-(6-(2-chloro-4-methylbenzyl)-1-((4-methoxyphenyl)sulfonyl)-1H-indol-3-yl)-N-methylmethanamine]",1.21
13,"CNCc1cn(S(=O)(=O)c2ccc(OC(F)F)cc2)c2cc(Cc3ccc(C)cc3Cl)ccc12 [Example 308, 1-(6-(2-chloro-4-methylbenzyl)-1-((4-(difluoromethoxy)phenyl)sulfonyl)-1H-indol-3-yl)-N-methylmethanamine]",1.34
14,"CNCc1cn(S(=O)(=O)c2cccnc2)c2cc(Oc3ccccc3[N+](=O)[O-])ccc12 [Example 310, N-methyl-1-(6-(2-nitrophenoxy)-1-(pyridin-3-ylsulfonyl)-1H-indol-3-yl)methanamine hydrochloride]",0.33
15,"CNCc1cn(S(=O)(=O)c2cccnc2)c2cc(Oc3ccc(C(F)(F)F)cc3Cl)ccc12 [Example 311, 1-(6-(2-chloro-4-(trifluoromethyl)phenoxy)-1-(pyridin-3-ylsulfonyl)-1H-indol-3-yl)-N-methylmethanamine hydrochloride]",4.17
16,"CNCc1cn(S(=O)(=O)c2cccnc2)c2cc(Oc3ncc(C(F)(F)F)cc3Cl)ccc12 [Example 312, 1-(6-((3-chloro-5-(trifluoromethyl)pyridin-2-yl)oxy)-1-(pyridin-3-ylsulfonyl)-1H-indol-3-yl)-N-methylmethanamine hydrochloride]",0.66
17,"CNCc1cn(S(=O)(=O)c2cccnc2)c2cc(Oc3ncc(F)cn3)ccc12 [Example 313, 1-(6-((5-fluoropyrimidin-2-yl)oxy)-1-(pyridin-3-ylsulfonyl)-1H-indol-3-yl)-N-methylmethanamine hydrochloride]",25

row,SMILES,IC50 [µM]
1,"CNCc1cn(S(=O)(=O)c2cccnc2)c2cc(Oc3cc(Cl)ncn3)ccc12 [Example 314, 1-(6-((6-chloropyrimidin-4-yl)oxy)-1-(pyridin-3-ylsulfonyl)-1H-indol-3-yl)-N-methylmethanamine hydrochloride]",19.4
2,"CCNCc1cn(S(=O)(=O)c2cccc(C(F)(F)F)c2)c2cc(Nc3ccc(OC)nc3Cl)ccc12 [Example 317, N-(2-chloro-6-methoxypyridin-3-yl)-3-((ethylamino)methyl)-1-((3-(trifluoromethyl)phenyl)sulfonyl)-1H-indol-6-amine]",1.92
3,"COc1ccc(Nc2ccc3c(CN4CCCC4)cn(S(=O)(=O)c4cccc(C(F)(F)F)c4)c3c2)c(Cl)n1 [Example 318, N-(2-chloro-6-methoxypyridin-3-yl)-3-(pyrrolidin-1-ylmethyl)-1-((3-(trifluoromethyl)phenyl)sulfonyl)-1H-indol-6-amine]",4.25
4,"COc1ccc(Nc2ccc3c(CN(C)C)cn(S(=O)(=O)c4cccc(C(F)(F)F)c4)c3c2)c(Cl)n1 [Example 319, N-(2-chloro-6-methoxypyridin-3-yl)-3-((dimethylamino)methyl)-1-((3-(trifluoromethyl)phenyl)sulfonyl)-1H-indol-6-amine]",1.24
5,"CNC(=O)c1cn(S(=O)(=O)c2cccc(C(F)(F)F)c2)c2cc(Nc3ccc(OC)nc3Cl)ccc12 [Example 320, 6-((2-chloro-6-methoxypyridin-3-yl)amino)-N-methyl-1-((3-(trifluoromethyl)phenyl)sulfonyl)-1H-indol-3-carboxamide]",20
6,"COc1ccc(Nc2ccc3c(C(=O)N(C)C)cn(S(=O)(=O)c4cccc(C(F)(F)F)c4)c3c2)c(Cl)n1 [Example 321, 6-((2-chloro-6-methoxypyridin-3-yl)amino)-N,N-dimethyl-1-((3-(trifluoromethyl)phenyl)sulfonyl)-1H-indol-3-carboxamide]",3.35
7,"Cc1ccc(Nc2ccc3c(C(=O)N(C)C)cn(S(=O)(=O)c4cccnc4)c3c2)c(F)c1 [Example 322, 6-((2-fluoro-4-methylphenyl)amino)-N,N-dimethyl-1-(pyridin-3-ylsulfonyl)-1H-indol-3-carboxamide]",24
8,"Cc1ccc(Nc2ccc3c(C(=O)N(C)C)cn(S(=O)(=O)c4cccnc4)c3c2)c(Cl)c1 [Example 323, 6-((2-chloro-4-methylphenyl)amino)-N,N-dimethyl-1-(pyridin-3-ylsulfonyl)-1H-indol-3-carboxamide]",20
9,"COc1ccc(Nc2ccc3c(C(=O)N(C)C)cn(S(=O)(=O)c4cccnc4)c3c2)c(F)c1 [Example 324, 6-((2-fluoro-4-methoxyphenyl)amino)-N,N-dimethyl-1-(pyridin-3-ylsulfonyl)-1H-indol-3-carboxamide]",20
10,"CN(C)C(=O)c1cn(S(=O)(=O)c2cccnc2)c2cc(Nc3ccc(C(F)(F)F)cc3Cl)ccc12 [Example 325, 6-((2-chloro-4-(trifluoromethyl)phenyl)amino)-N,N-dimethyl-1-(pyridin-3-ylsulfonyl)-1H-indol-3-carboxamide]",68
11,"Cc1cc(OC(F)(F)F)ccc1Nc1ccc2c(C(=O)N(C)C)cn(S(=O)(=O)c3cccnc3)c2c1 [Example 326, N,N-dimethyl-6-((2-methyl-4-(trifluoromethoxy)phenyl)amino)-1-(pyridin-3-ylsulfonyl)-1H-indol-3-carboxamide]",37
12,"CN(C)C(=O)c1cn(S(=O)(=O)c2cccnc2)c2cc(Nc3ccc(OC(F)(F)F)cc3Cl)ccc12 [Example 327, 6-((2-chloro-4-(trifluoromethoxy)phenyl)amino)-N,N-dimethyl-1-(pyridin-3-ylsulfonyl)-1H-indol-3-carboxamide]",40
13,"COc1cc(OC(F)(F)F)ccc1Nc1ccc2c(C(=O)N(C)C)cn(S(=O)(=O)c3cccnc3)c2c1 [Example 328, 6-((2-methoxy-4-(trifluoromethoxy)phenyl)amino)-N,N-dimethyl-1-(pyridin-3-ylsulfonyl)-1H-indol-3-carboxamide]",5
14,"Cc1ccc(Nc2ccc3c(C(=O)N(C)C)cn(S(=O)(=O)c4cccnc4)c3c2)c(F)c1F [Example 329, 6-((2,3-difluoro-4-methylphenyl)amino)-N,N-dimethyl-1-(pyridin-3-ylsulfonyl)-1H-indol-3-carboxamide]",42
15,"Cc1ccc(Nc2ccc3c(C(=O)N(C)C)cn(S(=O)(=O)c4cccnc4)c3c2)c(Cl)n1 [Example 330, 6-((2-chloro-6-methylpyridin-3-yl)amino)-N,N-dimethyl-1-(pyridin-3-ylsulfonyl)-1H-indol-3-carboxamide]",22
16,"CN(C)C(=O)c1cn(S(=O)(=O)c2cccnc2)c2cc(Nc3ccc(Cl)nc3Cl)ccc12 [Example 331, 6-((2,6-dichloropyridin-3-yl)amino)-N,N-dimethyl-1-(pyridin-3-ylsulfonyl)-1H-indol-3-carboxamide]",70
